Results: patent US20210345614A1, “APPLICATION OF 7-CARBOXYBENZO[1,2,3]THIADIAZOLE AMIDES AS PLANT STIMULANTS” (ADAM MICKIEWICZ UNIVERSITY FOUNDATION, priority 2015, published 2021)

Experiments:
[1] = test system: tobacco mosaic virus (TMV); test: BTHWA effect on the infectivity of tobacco mosaic virus (virus pre-incubated with compound, necrotic spots on tobacco leaves); assay type: in vivo, tobacco cv. xanthi; details: TMV approx. 3 μg/ml incubated 30 min with BTHWA 40 mg/L 1:1; after 5 days
Protocol: Purified tobacco mosaic virus (TMV) at a concentration of approx. 3 μg/ml was mixed with N-methyl-N-methoxy-7-carboxybenzo[1,2,3]thiadiazole amide (BTHWA) formulation (concentration 40 mg/L) in a 1:1 volume ratio and incubated for 30 min at room temperature (treated leaves). The control was TMV incubated in water. Both virus suspensions were used to mechanically infect tobacco leaves cv. xanthi. Local necrotic spots (hypersensitivity, local infection) produced on the tobacco leaves were measured.

Brome Mosaic Virus BMV = test: Protection of barley against Brome Mosaic Virus infection by watering; assay type: in vivo
Protocol: […] Control barley plants were treated with water only. One week after the second application of BTHWA, in each plant, one young developed leaf was sprinkled with carborundum to obtain small scratches, which helped in the virus infection.

[2] = test system: Pseudomonas syringe pv. tomato; test: Protection of tomato against bacterial infection of Pseudomonas syringe pv. tomato; assay type: in vivo, Tomato Lycopersicon esculentum Mill; details: sprayed twice, 20 mg/L
Protocol: Tomato plants in the phase of first pair of developed true leaves were watered twice with BTHWA at a concentration of 20 mg/L, at a weekly interval. Control tomato plants were treated with water only. One week after the second treatment Pseudomonas syringe pv. tomato bacterial suspension at a concentration of 10^5 CFU/cm^3 was introduced to the leaf using an insulin syringe (without a needle). Bacterial suspension was prepared from two-day Pseudomonas syringe pv. tomato culture on solid medium. Protection against biotic stress was evaluated based on the amount of bacterial growth in the leaves at the point of introduction followed by the formation of necrotic spots, and this compared with the control. […] The procedure as described in Example 16 was followed, however, the plants were sprayed. BTHWA at the concentration of 20 mg/L was applied twice by spraying.

Powdery mildew = test: Protection of tomato against fungal infection of Powdery mildew; assay type: in vivo, Tomato Lycopersicon esculentum Mill
Protocol: Tomato plants in the phase of first pair of developed true leaves were watered twice with BTHWA at a concentration of 20 mg/L, at a weekly interval. Control tomato plants were treater with water only. One week after the second treatment with BTHWA, Powdery mildew fungi suspension was introduced to the leaf using an insulin syringe (without a needle). The suspension was prepared from a culture in solid medium solid. Protection against biotic stress was evaluated based on comparing the area of the leaves infected by the fungi. […] The procedure as described in Example 18 was followed, however, the plants were sprayed.

Tomato plants [3] = test: Protection against abiotic stress in tomato caused by herbicide (glyphosate); assay type: in vivo; details: watered twice 20 mg/L; glyphosate 0.005% aqueous solution; 10 days after herbicide application
Protocol: (§1) Tomato plants in the phase of first pair of developed true leaves were watered twice with BTHWA at concentration of 20 mg/L, at a weekly intervals. Control tomato plants were treated with water only.

[4] = test system: Tobacco plants (Nicotiana tabacum) var. xanthi; test: Protection against abiotic stress in tobacco caused by herbicide (glyphosate); assay type: in vivo; details: watered twice 20 mg/l; glyphosate 0.005% aqueous solution; 10 days after herbicide application
Protocol: Tobacco plants (Nicotiana tabacum) var. […] stage of 3 developed leaves were watered twice with solution of BTHWA at concentration of 20 mg/l, at a weekly interval. Control […] plants were treated with water only.

Tomato plants [5] = test: Protection against abiotic stress in tomato caused by lack of water; assay type: in vivo; details: watered twice 20 mg/L; 10 days after cessation of watering
Protocol: as §1, with “only. A week after the second treatment, plants were exposed to a stress factor in the form of lack of access to water.” for “only.”

Tobacco plants = test: Protection against abiotic stress in tobacco caused by lack of water; assay type: in vivo; details: watered twice 20 mg/L; 10 days after cessation of watering
Protocol: Tobacco plants at the stage of 3 developed leaves were watered twice with BTHWA at concentration of 20 mg/L, at a weekly intervals. Control […] plants were watered with water only. A week after the second treatment, plants were exposed to a stress factor in the form of lack of access to water.

potato virus Y (PVY) = test: Field experiment on potato, PVY infection of tubers by DAS ELISA; assay type: in vivo, potato variety Altesse; details: for % of tubes infected by PVY Virus: field
[6] = test system: tobacco mosaic virus (TMV); test: TMV-tobacco cv. xanthi model, protection against biotic stress (necrotic spots); assay type: in vivo, Nicotiana tabacum cv. xanthi; details: sprayed twice at weekly intervals with 10 mg/L
[7] = test system: Nicotiana tabacum var. xanthi; test: Phytotoxicity of BTHWA spray on tobacco under greenhouse conditions; details: 5 to 1000 mg/L tested
Protocol: Experiments were carried out on a model tobacco plant (Nicotiana tabacum var. xanthi) under greenhouse conditions, where the plant was in the three-developed leaves phase. The plants were sprayed (with full coverage of the leaves surface) with a solution of a working fluid having a concentration of active substance (BTHWA) starting from 5 and ending at 1000 mg/L The phytotoxicity of the BTHWA was evaluated.

## CON(C)C(=O)c1cccc2nnsc12 [BTHWA, N-methyl-N-methoxy-7-carboxybenzo[1,2,3]thiadiazole amide]
[1]
  difference in number of necrotic spots between control and treated leaves: 12%
Brome Mosaic Virus BMV; watered twice at weekly intervals with 70 ml of 20 mg/L, two weeks after BMV infection
  biotic stress effects (disease symptoms) compared to control: showed no presence of biotic stress effects
Brome Mosaic Virus BMV; watered with 10 mg/L
  prevention of biotic stress caused by BMV infection: 65%
[2]
  protection against the effects of bacterial infection: fully protecting plants against the effects of bacterial infection
Powdery mildew; 10 mg/L, watering and spraying
  protection against the effects of fungal infection: almost completely securing plants from the effects of fungal infection
Powdery mildew; sprayed twice, 20 mg/L
  protection against the effects of fungal infection: fully protecting plants against the effects of fungal infection
Powdery mildew; watered twice at a weekly interval, 20 mg/L
  fungal infection and formation of infected leaf areas: fungal infection and formation of infected areas were not observed
Tomato plants [3]
  lesser negative effect of the herbicide compared to the control: 30%
[4]
  lesser negative effect of the herbicide compared to the control: 26%
Tomato plants [5]
  total mass of the untreated plants lower than the weight of the treated plants: 10%
Tobacco plants
  total mass of the untreated plants lower than the weight of the treated plants: 13%
Potato virus Y (PVY); foliar application 20 mg/L of operational fluid, field conditions
  reduction in the amount of PVY virus occurrence in the treated plants: ~50%
Potato virus Y (PVY); foliar application 20 mg/L with mineral oil adjuvant, 7 days intervals
  % of tubes infected by PVY Virus: 44.2%
Potato virus Y (PVY); tuber dressing 20 mg/L + foliar application 20 mg/L
  % of tubes infected by PVY Virus: 40.7%
[6]
  protection against biotic stress caused by TMV infection: protected the treated leaves against biotic stress
[7]
  concentration in the working fluid at which phytotoxic effects were observed (yellowing of the leaves, necrosis of leaves, growth inhibition): above 100 mg/L
